- melting point: 226 to 228 °C
Structure (SMILES): O=c1c2ncn(COCCO)c2nc2[nH]c(-c3ccc(Cl)s3)cn12 [compound 2, 3-(2-Hydroxy-ethoxymethyl)-6-(5-chloro-thiophen-2-yl)-3,5-dihydro-1,3,4,5,7a-pentaaza-s-indacen-8-one]
